Measured values as given in US9426996B2, “Use of benzoxaboroles as volatile antimicrobial agents on meats, plants, or plant parts” (AgroFresh Inc., priority 2013, dated 2016).

Tests used:
Penicillium digitatum [1] = assay: in vivo volatile bioassay using orange fruit (Compound A); details: oranges
Method: In order to assess the in vivo activity of volatile antimicrobial Compound A in fruit, a volatile bioassay is developed using orange fruit. Two oranges are placed inside a PET clamshell. Three fresh wounds per orange are inoculated with 30 μL of 1×10^6 per mL Penicillium digitatum spore suspension. The clamshells are placed inside a 10.8-cup SnapWare airtight container (Model #109842). A 42.5 mm Whatman #1 filter disk (Cat. No. 1001-042) is placed on a watch glass. Compound A is dissolved in acetone and added to the disks in a dose dependent manner to produce a final headspace concentration of 2, 10, or 50 mg/L. The acetone is permitted to evaporate for five minutes. The containers are then closed with the lids and placed for three days at 21° C. After storage, fruits are evaluated for disease incidence (mm diameter of the rot) and pathogen sporulation (mm diameter) on the surface of the fruits for an additional two days at 21° C., with results summarized in Table 18.

Penicillium digitatum [2] = assay: in vitro contact fungicide assay (amended PDA); format: cell-based; details: three days at 23° C.
Method: (§1) In order to assess the activity of Compound A as a contact fungicide, an in vitro assay is developed. A 6 cm-diameter Petri plate is used. Compound A is amended into full-strength Potato Dextrose Agar (PDA) to achieve a final solution concentration of 10, 2, 0.4, or 0.08 mg/L, and 15-mL volume of solution is added to each plate. After cooling, 1 μL of 1×10^5 per mL Penicillium expansum or Penicillium digitatum spore suspension is spot-pipetted into the center of the agar.
(§2) Plates are sealed with a parafilm and placed in an incubator held at 23° C. After three days of storage, the cultures are evaluated for percent growth relative to control based on measurement of fungal colony diameter.

Penicillium expansum [3] = assay: in vitro contact fungicide assay (amended PDA); format: cell-based; details: three days at 23° C.
Method: as §1, §2

Botrytis cinerea [4] = assay: combination treatment with 1-MCP on white roses; format: in vivo; details: three day volatile treatment at 21° C.
Method: To evaluate a combination treatment of Compound A with 1-methylcyclopropene (1-MCP), an in vivo experiment is performed on white roses.
Five white roses are placed in an 800 mL jar containing 200 mL of a common commercial flower preservative. Three jars are then placed in a 117 L Rubbermaid storage box (Cat #2244). Two small fans are placed in opposite ends of the container to assist with the distribution of the two volatiles. A 500 parts per billion (ppb) volume per volume (v/v) 1-MCP treatment is applied (AgroFresh, Springhouse, Pa.) for 24 hours at 21° C. After the 1-MCP treatment is completed, the containers are vented, and Compound A powder is applied in a dose dependent manner to achieve a final headspace concentration of 0.2, 0.04, or 0.008 mg/L with a sublimation device (copper tube heated to 200° C. with fan flow at 0.5 L/min), with the end of the tube penetrating through a ½ inch side port in the container that is sealed immediately after the application. The flowers are incubated for three days at 21° C. After treatment, the flowers are evaluated for an additional seven days at 21° C. for disease incidence and severity of the flower petals.

Botrytis cinerea [5] = assay: in vitro spore germination assay, temperature regimes; format: cell-based; details: B. cinerea spores; for inhibition at 0.035 µg/mL: 0.035 mg/L; for inhibition at 0.07 µg/mL: 0.07 mg/L; for inhibition at 0.14 µg/mL: 0.14 mg/L
Method: (§3) In order to assess the activity of Compound A as a volatile fungicide, an in vitro assay is developed to evaluate spore germination. Two mL of water agar is poured in 3.5 cm Petri plates. […] Plates are then incubated for either one day at 0° C., five day at 0° C., or five day at 0° C. plus an additional one or two days at 21° C.

Penicillium expansum [6] = assay: as above; format: cell-based; details: P. expansum spores; for inhibition at 0.035 µg/mL: 0.035 mg/L; for inhibition at 0.07 µg/mL: 0.07 mg/L; for inhibition at 0.14 µg/mL: 0.14 mg/L
Method: as §3

OB1OCc2cc(F)ccc21 [Compound A]
Sporulation (mm) (Penicillium digitatum [1]; 2 mg/L, Day 0): 0 mm | Water soaked lesions (mm) (Penicillium digitatum [1]; 2 mg/L, Day 0): 0 mm | Sporulation (mm) (Penicillium digitatum [1]; 2 mg/L, Day 1): 0.4 mm | Water soaked lesions (mm) (Penicillium digitatum [1]; 2 mg/L, Day 1): 0 mm | Sporulation (mm) (Penicillium digitatum [1]; 2 mg/L, Day 2): 2.7 mm | Water soaked lesions (mm) (Penicillium digitatum [1]; 2 mg/L, Day 2): 13.4 mm | Sporulation (mm) (Penicillium digitatum [1]; 10 mg/L, Day 0): 0.5 mm | Water soaked lesions (mm) (Penicillium digitatum [1]; 10 mg/L, Day 0): 0 mm | Sporulation (mm) (Penicillium digitatum [1]; 10 mg/L, Day 1): 0.4 mm | Water soaked lesions (mm) (Penicillium digitatum [1]; 10 mg/L, Day 1): 0 mm | Sporulation (mm) (Penicillium digitatum [1]; 10 mg/L, Day 2): 2.5 mm | Water soaked lesions (mm) (Penicillium digitatum [1]; 10 mg/L, Day 2): 9 mm | Sporulation (mm) (Penicillium digitatum [1]; 50 mg/L, Day 0): 0 mm | Water soaked lesions (mm) (Penicillium digitatum [1]; 50 mg/L, Day 0): 0 mm | Sporulation (mm) (Penicillium digitatum [1]; 50 mg/L, Day 1): 0 mm | Water soaked lesions (mm) (Penicillium digitatum [1]; 50 mg/L, Day 1): 0 mm | Sporulation (mm) (Penicillium digitatum [1]; 50 mg/L, Day 2): 1.2 mm | Water soaked lesions (mm) (Penicillium digitatum [1]; 50 mg/L, Day 2): 5 mm | Incidence (%) P. digitatum (Penicillium digitatum [2]; 0.08 mg/L): 42.0% | Incidence (%) P. digitatum (Penicillium digitatum [2]; 0.4 mg/L): 12.5% | Incidence (%) P. digitatum (Penicillium digitatum [2]; 2 mg/L): 0.0% | Incidence (%) P. digitatum (Penicillium digitatum [2]; 10 mg/L): 0.0% | Incidence (%) P. expansum (Penicillium expansum [3]; 0.08 mg/L): 93.1% | Incidence (%) P. expansum (Penicillium expansum [3]; 0.4 mg/L): 33.0% | Incidence (%) P. expansum (Penicillium expansum [3]; 2 mg/L): 0.0% | Incidence (%) P. expansum (Penicillium expansum [3]; 10 mg/L): 0.0% | Incidence (%) (Botrytis cinerea [4]; 0.008 mg/L): 20.0% | Severity (0-4) (Botrytis cinerea [4]; 0.008 mg/L): 0.2 | Incidence (%) (Botrytis cinerea [4]; 0.04 mg/L): 20.0% | Severity (0-4) (Botrytis cinerea [4]; 0.04 mg/L): 0.03 | Incidence (%) (Botrytis cinerea [4]; 0.2 mg/L): 0.0% | Severity (0-4) (Botrytis cinerea [4]; 0.2 mg/L): 0.0 | inhibition at 0.035 µg/mL (Botrytis cinerea [5]; 24 h, 1 day, 0° C.): 0% | inhibition at 0.07 µg/mL (Botrytis cinerea [5]; 24 h, 1 day, 0° C.): 0% | inhibition at 0.14 µg/mL (Botrytis cinerea [5]; 24 h, 1 day, 0° C.): 0% | inhibition at 0.035 µg/mL (Botrytis cinerea [5]; 120 h, 5 day, 0° C.): 0% | inhibition at 0.07 µg/mL (Botrytis cinerea [5]; 120 h, 5 day, 0° C.): 0% | inhibition at 0.14 µg/mL (Botrytis cinerea [5]; 120 h, 5 day, 0° C.): 0% | inhibition at 0.035 µg/mL (Botrytis cinerea [5]; 5 day, 0° C. 1 day, 21° C.): 0% | inhibition at 0.07 µg/mL (Botrytis cinerea [5]; 5 day, 0° C. 1 day, 21° C.): 0% | inhibition at 0.14 µg/mL (Botrytis cinerea [5]; 5 day, 0° C. 1 day, 21° C.): 0% | inhibition at 0.035 µg/mL (Penicillium expansum [6]; 24 h, 1 day, 0° C.): 0% | inhibition at 0.07 µg/mL (Penicillium expansum [6]; 24 h, 1 day, 0° C.): 0% | inhibition at 0.14 µg/mL (Penicillium expansum [6]; 24 h, 1 day, 0° C.): 0% | inhibition at 0.035 µg/mL (Penicillium expansum [6]; 120 h, 5 day, 0° C.): 0% | inhibition at 0.07 µg/mL (Penicillium expansum [6]; 120 h, 5 day, 0° C.): 0% | inhibition at 0.14 µg/mL (Penicillium expansum [6]; 120 h, 5 day, 0° C.): 0% | inhibition at 0.035 µg/mL (Penicillium expansum [6]; 5 day, 0° C. 1 day, 21° C.): 0% | inhibition at 0.07 µg/mL (Penicillium expansum [6]; 5 day, 0° C. 1 day, 21° C.): 0% | inhibition at 0.14 µg/mL (Penicillium expansum [6]; 5 day, 0° C. 1 day, 21° C.): 0%
